Melting point data for 88 compounds are collected here from a melting point compilation (Tetko et al.; mined from patent text by program, amines drawn as free bases though some values may be those of a salt).

By melting point is commonly meant the temperature, or range, at which the solid turns liquid. As to `O=[N+]([O-])c1cccc(-c2csc(NS(=O)(=O)Cc3ccccc3)n2)c1`, the melting point is 219 to 221 °C.

The compound `CN1C(=O)CC[C@]2(C)c3ccc(-c4ccc(S(C)(=O)=O)cc4)cc3CC[C@@H]12` registered a melting point of 229 °C.

The compound `CCOC(=O)Nc1ccc(N(CC)CC)cc1` came in with a melting point of 31 to 33 °C.

In turn, `CCN(CC)C(=O)n1cc(C(F)F)c(S(=O)(=O)c2cccc(Cl)c2)n1` displayed a melting point of 86 to 88 °C.

`CCOc1ncc(C(C)=O)cc1C(=O)OC`: the melting point fell in the range of 111 to 112 °C.

Compound `CCCCc1nc2c([nH]c(=O)c3ccccc32)s1` gave a melting point of 172 to 173 °C.

The compound `CNn1c(SC)nnc(C(C)C2CC2)c1=O` (stereo not drawn) displayed a melting point of 66 to 68 °C.

Take `CC(=O)OC1CSC(Sc2cccc(C#N)c2)C(OC(C)=O)C1OC(C)=O` (stereo not drawn): the melting point amounted to 133 °C.

With `Cn1cc(-c2c(-c3ccc(F)cc3)nn3ccncc23)ccc1=O`, the melting point lay in the range of 222 to 223 °C.

For the compound `C[C@]1(CN2CC=C(c3ccccc3)CC2)Cn2cc([N+](=O)[O-])nc2O1`, the melting point was 200 to 201 °C.

Turning to `O=C1CC(c2ccccc2)C(c2ccccc2)=NN1C(=O)Nc1ccc(C(F)(F)F)cc1` (stereo not drawn), the melting point was 164 to 166 °C.

With `Cc1nccc(N2CCC(O)(C(=O)N3CCN(C(=O)c4ccc(Br)cc4)CC3)CC2)n1`, the melting point lay within 114 to 117 °C.

The compound `COc1c(Nc2ncc(Cl)c(Nc3ccccc3S(=O)(=O)N3CCCC3)n2)ccc2c1CCCC(NCCO)C2` (stereo not drawn) gave a melting point of 79 to 82 °C.

On to `CCOC(=O)C1Cc2c(n(C)c3ccc(OCc4ccccc4)cc23)C1` (stereo not drawn), for which the melting point fell in the range of 90 to 95 °C.

The compound `CCOC(=O)C1CCCCN1C(=O)Cl` (stereo not drawn) gave a melting point of 121 to 123 °C.

For the compound `Cc1ccccc1COC1(C)COC(CCl)OC1` (stereo not drawn), the melting point is 57 to 58 °C.

In turn, `O=C(Nc1ccc(OCCN2CCOCC2)c2ccccc12)c1cccc(N2CCOCC2)c1` showed a melting point of 90 to 92 °C.

As for `CC(C)(C)NC(=O)N1CCN(Cc2ccccc2)C[C@@H]1C(=O)N(CCCn1ccnc1)Cc1ccccc1`, the melting point is 57.8 °C.

Regarding `O=c1[nH]c2ccccc2c(=O)n1CCCN1CCC(OC(c2ccccc2)c2ccccc2)CC1`, the melting point was 173 to 175 °C.

Compound `CCOC(=O)c1c(CC(=O)O)n(-c2ccc(OC(F)(F)F)cc2)c2ccc(Oc3ccc(CCl)cn3)cc12` showed a melting point of 168 to 170 °C.

The compound `N#CC=C1CCN(c2ccc(N3C[C@@H](Cn4cc(CCC(=O)O)nn4)OC3=O)cc2)CC1` displayed a melting point of 120 to 122 °C.

In turn, `NC(=O)CNC(=O)c1cccc(-c2ccc(Cl)c3cc(Cc4ccc(F)c(F)c4)sc23)c1` came in with a melting point of 188 to 189 °C.

`COC(=O)c1cc(C#N)cn1CC(=O)c1ccccc1` showed a melting point of 169 to 172 °C.

Compound `COc1ccc2nc(-n3ccnc3)nc(NCCSC)c2c1` gave a melting point of 168 to 178 °C.

In the case of `Nc1nccc(Oc2ccc3c(c2)CCCCN3C(=O)Nc2cccc(C(F)(F)F)c2)n1`, the melting point was 207 °C.

As to `Cc1ccccc1C(Oc1cc(OCc2ccncc2)ccc1C#N)c1nnn[nH]1` (racemic), the melting point lay in the range of 132 to 133 °C.

Take `COc1ccccc1N(CN1C(=O)CN(C)C1=O)C(C)=O`: the melting point is 169 to 172 °C.

Regarding `[N-]=[N+]=NC1(c2ccccc2Cl)C(=O)Nc2ccc(Cl)cc21` (stereo not drawn), the melting point stood at 178 °C.

`CC(/C=C/c1c(C)oc(C)c1C)=C\C=C\C(C)=C\C(=O)O` yielded a melting point of 213 to 214 °C.

In the case of `O=C1C(=Cc2ccc(Cl)cc2)Cc2ccccc21`, the melting point lay in the range of 174 to 179 °C.

As to `CC(C)(C)c1cc(C(O)COc2ccc(C(=O)O)c(O)c2)cc(C(C)(C)C)c1O` (stereo not drawn), the melting point lay in the range of 132 to 133 °C.

`CN(C)c1ccc2c(c1)N(CCCN1CCC(C(=O)O)CC1)c1ccccc1CC2`: the melting point lay within 198 to 202 °C.

`CN(CCCNC(=S)c1cc(C(C)(C)C)c(O)c(C(C)(C)C)c1)CCOc1ccc2c(c1)OCO2`: the melting point is 114 to 115 °C.

`CCOC(=O)C(C(=O)Cc1cc(OC(C)C)c(Cl)cc1F)=C(N)C(F)(F)F` returned a melting point of 58 to 59 °C.

The compound `COc1ccc(C2=CCCC(=O)O2)cc1` registered a melting point of 77.4 to 79.8 °C.

Regarding `CCOC(=O)C1(CCCCOc2ccc(C(=O)OC)cc2)Cc2c(OC)c(OC)c(OC)c(OC)c2C1=O` (stereo not drawn), the melting point fell in the range of 116 to 118 °C.

As to `Cc1ccc(-c2cncc(/C=C/C(=O)O)c2)cc1`, the melting point fell in the range of 208 to 211 °C.

As to `CCC(=Cc1cccnc1)C(=O)NCCCCN1CCN(C(c2ccccc2)c2ccccc2)CC1`, the melting point was in the range of 137 to 141 °C.

For the compound `N#Cc1cccc(-c2nc(S(=O)(=O)C(F)(F)F)cc3cccnc23)c1`, the melting point lay within 102 to 104 °C.

As to `CCOC(=O)NN=C(CO)c1cccc(Cl)c1`, the melting point lay in the range of 109 to 110 °C.

The compound `OC1(C2CCC(c3c(F)cccc3F)=N2)C=CC(c2ccccc2)=CC1` (stereo not drawn) came in with a melting point of 217 °C.

`COc1ccc(-c2noc(C3CCCN(C(=O)c4ccccc4)C3)n2)cc1` (stereo not drawn) gave a melting point of 121 °C.

`COc1cccc2c1nc(-c1c(F)cccc1F)n2CC=C(C)C` returned a melting point of 101 to 103 °C.

`CCOC(=O)c1sc2cc(Cn3ccnc3)ccc2c1Cl` showed a melting point of 127 to 129 °C.

Turning to `C#Cc1ccc2c(c1)[C@@H](N)[C@H](O)CO2` (relative stereo), the melting point fell in the range of 132 to 134 °C.

In the case of `C=C(C)CN1C(=O)c2cscc2Nc2ccccc21`, the melting point is 161 to 163 °C.

On to `O=C(O)CN1C(=O)C(NC(CCc2ccccc2)C(=O)O)CCc2ccccc21` (stereo not drawn), for which the melting point was in the range of 256 to 259 °C.

`O=c1oc2ccc(-c3ccc(F)cc3F)cc2c(=O)n1-c1ccc(C(F)(F)F)cc1` gave a melting point of 209 to 210 °C.

As to `COc1ccc(C=N[C@H]2COc3c(F)ccc(OC)c3C2)cc1`, the melting point was in the range of 96.8 to 97.3 °C.

`CCc1c(Oc2cc(C)cc(C)c2)[nH]c(=O)[nH]c1=O`: the melting point lay within 91 to 92 °C.

In turn, `O=C1c2ccccc2S(=O)(=O)N1COc1ccc([N+](=O)[O-])cc1` came in with a melting point of 162 to 164 °C.

Compound `CCOC(=O)C1=Cc2cc(C#C[Si](C)(C)C)ccc2NC1C(F)(F)F` (stereo not drawn) yielded a melting point of 117 to 119 °C.

Compound `CN(C)C(=O)C(=O)N1CN(C(=O)c2c(F)cccc2F)C(=O)N(c2ccc(Oc3ccc(C(F)(F)F)cc3Cl)cc2F)C1` showed a melting point of 98 to 100 °C.

The compound `COC(=O)CCc1cc2cc(Cl)c(Cl)cc2n1S(=O)(=O)c1ccccc1` registered a melting point of 280 °C.

Consider `COc1cc2cc(CO)c(CO)c(-c3cccc(Br)n3)c2cc1OC`, for which the melting point fell in the range of 107 to 108 °C.

The compound `CCS(=O)(=O)Nc1c(C)c(C)c2c(c1C)C(c1ccc(C(C)C)cc1)CO2` (stereo not drawn) had a melting point of 132 to 133 °C.

Turning to `C[C@H]1C(=O)N2[C@H](c3ccc4c(c3)OCO4)c3[nH]c4ccccc4c3C[C@@H]2C(=O)N1C`, the melting point was 219 to 220 °C.

`COc1cc(CCC(=O)c2c(OC)cc(OC)c(CCC(C)C)c2OCC(=O)O)ccc1O` showed a melting point of 87 to 88 °C.

With `CCCCN(Cc1ccc2c(Br)c(OCc3nnn[nH]3)ccc2c1)C(=O)c1c(C)oc2ccccc12`, the melting point lay within 204 to 206 °C.

For `CCCCCCOc1ccc(C(=O)Nc2ccccc2Oc2cccc(OCc3nnn[nH]3)c2)cc1`, the melting point lay within 158 to 159 °C.

With `CC(=O)Nc1nc2c(s1)C(=O)C(Br)CC2` (stereo not drawn), the melting point is 180 to 182 °C.

Consider `O=C(O)Cc1ccc(-c2ccc(F)cc2)c(F)c1`, for which the melting point was in the range of 144 to 146 °C.

In turn, `CSc1ccc(-c2oncc2C(=O)C2CC2)nc1` had a melting point of 103 to 104 °C.

`C=CCN(C(=O)OCc1ccccc1)c1cc(F)c(-c2ccncc2)c(F)c1` displayed a melting point of 82 to 83 °C.

With `Nc1ccc2c(c1)ncn2-c1ccccc1O`, the melting point lay in the range of 202 to 203 °C.

`COC(=O)C(C#N)c1cccc2ccc(OC)cc12` (stereo not drawn) gave a melting point of 80 to 82 °C.

As for `COC(=O)C(=O)c1ccc(OCCOCCOc2ccccc2)cc1`, the melting point lay within 75 to 76 °C.

`Cc1cnc2n(c1=O)CCC2` displayed a melting point of 82 °C.

`NNc1cccc(-c2ccccn2)n1`: the melting point was 69 to 70 °C.

On to `O=Cc1cnc(Cl)c(Cl)c1`, for which the melting point was 65 °C.

Compound `COc1cc(OC)c2c(=O)cc(-c3ccc(C)cc3)oc2c1C1=CCN(C)CC1` showed a melting point of 113 to 114 °C.

`CN(C)CCCCOc1ccc(-c2nnc(CSCCOc3ccccc3)o2)cc1` registered a melting point of 62 to 63 °C.

`CCOc1cc(N)c(Cl)cc1C(=O)NC[C@H]1CN(CC2CCN(C(=O)N(C)OC)CC2)CCO1` came in with a melting point of 127 to 129 °C.

Compound `Cc1cnc(CSc2cc3ccccc3[nH]2)cc1N1CCCCC1` gave a melting point of 138 to 139 °C.

On to `COC(=O)c1ccc(C#CCCO)cc1`, for which the melting point lay within 95.5 to 96 °C.

In turn, `Cc1c(NCc2ccccc2)cc2c(c1C)OCC2c1ccc(C(C)C)cc1` (stereo not drawn) showed a melting point of 108 to 109 °C.

With `O=C(O)CSCc1cc2c(cc1Cc1ccccc1)OCO2`, the melting point fell in the range of 99.5 to 100 °C.

On to `O=C(O)COc1ccc(SCc2cccc(OCc3ccc(C(F)(F)F)cc3)c2)c2c1CCCO2`, for which the melting point lay within 113 to 115 °C.

`Cc1cc2cc(C#CCO)ccc2o1` yielded a melting point of 102 °C.

Regarding `CC(C)(C)OC(=O)N[C@H](CCOc1ccc(C#N)cc1)C(=O)O`, the melting point was 132 to 146 °C.

As to `CC(C)CC1(C(CCN2C(=O)c3ccc([N+](=O)[O-])cc3C2=O)C(=O)NO)CCN(CCc2ccccc2)C1=O` (stereo not drawn), the melting point was in the range of 161 to 162 °C.

Regarding `C=CCN(C=CC=C(C#N)C#N)CC=C`, the melting point was in the range of 50 to 52 °C.

`CN(Cc1cc2c(=O)c(C(=O)NCc3ccc(Cl)cc3)cn(C)c2o1)CC(O)c1nccs1` (stereo not drawn) had a melting point of 114 to 116 °C.

With `CCNC(=O)c1c([Si](C)(C)C)sc(C)c1C`, the melting point was in the range of 90 to 94 °C.

With `CN(C)c1ccc(C(c2ccccc2)c2c(C(=O)O)[nH]c3ccccc23)cc1` (stereo not drawn), the melting point was in the range of 72 to 78 °C.

`COC(=O)COc1ccc(NC(=O)CCc2ccc(C#N)cc2)cc1` showed a melting point of 141 °C.

Turning to `COc1ccc(N2CCOCC2)c2sc(NC(=O)N3CC4CCC3CO4)nc12` (stereo not drawn), the melting point is 164 to 170 °C.

In the case of `O=C(O)c1cccc(C(=O)Nc2cccc3cc(Br)cnc23)c1`, the melting point was in the range of 275 to 277 °C.
